Patent US7056947B2, “Aza-peptide epoxides” (Georgia Tech Research Corp., priority 2002, dated 2006)

How the values were obtained:
Format in all cases: biochemical
papain = target: T1, papain (Carica papaya, UniProt P00784); assay: Inhibition of papain, incubation method; conditions: second-order rate constant, NI = no inhibition; for kinact/KI: pH 7.5, read-out: kobs/[I] papain
T1 sequence (P00784 134-345): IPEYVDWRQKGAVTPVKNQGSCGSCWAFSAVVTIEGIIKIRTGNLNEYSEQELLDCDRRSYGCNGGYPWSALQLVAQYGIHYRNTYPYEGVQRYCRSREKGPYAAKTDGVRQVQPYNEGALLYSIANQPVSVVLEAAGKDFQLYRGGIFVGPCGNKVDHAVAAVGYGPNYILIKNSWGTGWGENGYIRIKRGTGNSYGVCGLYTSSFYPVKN
Procedure: (§1) The release of 7-amino-4-methylcoumarin was monitored (λex=360 nm, λem=465 nm) using a Tecan Spectra Fluor microplate reader. Pseudo first-order inactivation rate constants were obtained from plots of In vt/vo versus time.
The incubation method was also used for papain. The inhibition incubation buffer for papain was 50 mM Hepes buffer at pH 7.5, containing 2.5 mM DTT and 2.5 mM EDTA. The assay used the substrate Z-Phe-Arg-pNA (53.7 μM) in the same buffer. The approximate concentration of papain added to the incubation buffer was 0.29 mg/mL. The release of p-nitroanilide was monitored at 405 nm with a Molecular Devices Thermomax microplate reader.

calpain = assay: Inhibition of calpain; conditions: second-order rate constant; NI = no inhibition
cathepsin B = cathepsin B (Homo sapiens, UniProt P07858); assay: Inhibition of cathepsin B, incubation method; conditions: second-order rate constant, NI = no inhibition; for kinact/KI: pH 6, read-out: kobs/[I] cathepsin B
Excerpt: as §1

Structure (SMILES)	kobs/[I] papain (papain) [M⁻¹ s⁻¹]	kobs/[I] calpain (calpain) [M⁻¹ s⁻¹]	kinact/KI (cathepsin B) [M⁻¹ s⁻¹]	kinact/KI (papain) [M⁻¹ s⁻¹]	kobs/[I] cathepsin B (cathepsin B) [M⁻¹ s⁻¹]
CCOC(=O)[C@@H]1O[C@H]1C(=O)N(CC(C)C)NC(=O)C(CC(C)C)NC(=O)OCc1ccccc1 (stereo partly drawn) [Cbz-Leu-ALeu-(2R, 3R)-EP-COOEt, (2R,3R)-3-(N^2-(N-Benzyloxycarbonyleucyl)-N^1-isobutylhydrazinocarbonyl)oxirane-2-carboxylic Acid Ethyl Ester]	6.70	1.45			
CCOC(=O)[C@@H]1O[C@H]1C(=O)N(CC(C)C)NC(=O)[C@H](CC(C)C)NC(C)=O (relative stereo) [Ac-Leu-ALeu-trans-EP-COOEt, trans-3-(N^2-(N-Acetylleucyl)-N^1-isobutylhydrazinocarbonyl)oxirane-2-carboxylic Acid Ethyl Ester]		1.48	8	2.09	
CCOC(=O)[C@H]1O[C@@H]1C(=O)N(CCc1ccccc1)NC(=O)C(CC(C)C)NC(=O)OCc1ccccc1 (stereo partly drawn) [Cbz-Leu-AHph-(2S, 3S)-EP-COOEt, (2S,3S)-3-(N^2-(N-Benzyloxycarbonyleucyl)-N^1-phenylethylhydrazinocarbonyl)oxirane-2-carboxylic Acid Ethyl Ester]	5.68	2.28			0.67
CCOC(=O)[C@@H]1O[C@H]1C(=O)N(CCc1ccccc1)NC(=O)OCc1ccccc1 (relative stereo) [Cbz-AHph-trans-EP-COOEt, trans-3-(N^2-(N-Benzyloxycarbonyl)-N^1-phenylethylhydrazinocarbonyl)oxirane-2-carboxylic Acid Ethyl Ester]	18.8	2.44			8.91
CC(C)C[C@H](NC(=O)OCc1ccccc1)C(=O)NN(CCc1ccccc1)C(=O)[C@H]1O[C@@H]1C(=O)O [Cbz-Leu-AHph-(2S, 3S)-EP-COOH, (2S,3S)-3-(N^2-(N-Benzyloxycarbonyleucyl)-N^1-phenylethylhydrazinocarbonyl)oxirane-2-carboxylic Acid]		2.12			
CCOC(=O)[C@@H]1O[C@H]1C(=O)N(CCc1ccccc1)NC(=O)[C@H](CC(C)C)NC(=O)OCc1ccccc1 [Cbz-Leu-AHph-(2R, 3R)-EP-COOEt, (2R,3R)-3-(N^2-(N-Benzyloxycarbonyleucyl)-N^1-phenylethylhydrazinocarbonyl)oxirane-2-carboxylic Acid Ethyl Ester]	2.16	2.12			
CCOC(=O)[C@@H]1O[C@H]1C(=O)N(CC(C)C)NC(=O)[C@H](CC(C)C)NC(=O)OCc1ccccc1 (relative stereo) [Cbz-Leu-ALeu-trans-EP-COOEt, trans-3-(N^2-(N-Benzyloxycarbonyleucyl)-N^1-isobutylhydrazinocarbonyl)oxirane-2-carboxylic Acid Ethyl Ester]	6.37	3.09			23.32
CCOC(=O)[C@@H]1O[C@@H]1C(=O)N(CCc1ccccc1)NC(=O)[C@H](CC(C)C)NC(=O)OCc1ccccc1 (relative stereo) [Cbz-Leu-AHph-cis-EP-COOEt, cis-3-(N-(N-Benzyloxycarbonyleucyl)-N^1-phenylethylhydrazinocarbonyl)oxirane-2-carboxylic Acid Ethyl Ester]	1.03	1.09			
CCOC(=O)[C@@H]1O[C@H]1C(=O)N(CCc1ccccc1)NC(=O)[C@H](CC(C)C)NC(C)=O (relative stereo) [Ac-Leu-AHph-trans-EP-COOEt, trans-3-(N^2-(N-Acetylleucyl)-N^1-phenylethylhydrazinocarbonyl)oxirane-2-carboxylic Acid Ethyl Ester]		0.84	0.59	1.9	
CC(C)C[C@H](NC(=O)OCc1ccccc1)C(=O)N[C@@H](CC(C)C)C(=O)NN(CC(C)C)C(=O)[C@H]1O[C@@H]1C(=O)O [Cbz-Leu-Leu-ALeu-(2S, 3S)-EP-COOH, (2S,3S)-3-(N^2-(N-Benzyloxycarbonylleucylleucyl)-N^1-isobutylhydrazinocarbonyl)oxirane-2-carboxylic Acid]		0.82	7.02	6.93	
CCOC(=O)[C@H]1O[C@@H]1C(=O)N(CC(C)C)NC(=O)C(CC(C)C)NC(=O)OCc1ccccc1 (stereo partly drawn) [Cbz-Leu-ALeu-(2S, 3S)-EP-COOEt, (2S,3S)-3-(N^2-(N-Benzyloxycarbonyleucyl)-N^1-isobutylhydrazinocarbonyl)oxirane-2-carboxylic Acid Ethyl Ester]	10.53	8.58			1.8
CCOC(=O)[C@@H]1O[C@H]1C(=O)N(CC(C)C)NC(=O)OCc1ccccc1 (relative stereo) [Cbz-ALeu-trans-EP-COOEt, trans-3-(N^2-(N-Benzyloxycarbonyl)-N^1-isobutylhydrazinocarbonyl)oxirane-2-carboxylic Acid Ethyl Ester]	16.1	1.75			4.43
CCOC(=O)[C@@H]1O[C@H]1C(=O)N(CC(C)C)NC(=O)[C@H](CC(C)C)NC(=O)[C@H](CC(C)C)NC(=O)OCc1ccccc1 (relative stereo) [Cbz-Leu-Leu-ALeu-trans-EP-COOEt, trans-3-(N^2-(N-Benzyloxycarbonylleucylleucyl)-N^1-isobutylhydrazinocarbonyl)oxirane-2-carboxylic Acid Ethyl Ester]		2.65		34.8	
CCOC(=O)[C@H]1O[C@@H]1C(=O)N(CC(C)C)NC(=O)[C@H](CC(C)C)NC(=O)[C@H](CC(C)C)NC(=O)OCc1ccccc1 [Cbz-Leu-Leu-ALeu-(2S, 3S)-EP-COOEt, (2S,3S)-3-(N^2-(N-Benzyloxycarbonylleucylleucyl)-N^1-isobutylhydrazinocarbonyl)oxirane-2-carboxylic Acid Ethyl Ester]		2.48	0.98	10.5	
CCOC(=O)[C@@H]1O[C@@H]1C(=O)N(CC(C)C)NC(=O)C(CC(C)C)NC(=O)OCc1ccccc1 (relative stereo) [Cbz-Leu-ALeu-cis-EP-COOEt, cis-3-(N^2-(N-Benzyloxycarbonyleucyl)-N^1-isobutylhydrazinocarbonyl)oxirane-2-carboxylic Acid Ethyl Ester]	0.38	1.88			6.27
CCOC(=O)[C@@H]1O[C@H]1C(=O)N(CC)NC(=O)C(CC(C)C)NC(=O)OCc1ccccc1 (relative stereo) [Cbz-Leu-AAbu-trans-EP-COOEt, trans-3-(N^2-(N-Benzyloxycarbonyleucyl)-N^1-ethylhydrazinocarbonyl)oxirane-2-carboxylic Acid Ethyl Ester]	4.94	1.98			
CCN(NC(=O)[C@H](CC(C)C)NC(=O)OCc1ccccc1)C(=O)[C@@H]1O[C@H]1C(=O)O (relative stereo) [Cbz-Leu-AAbu-trans-EP-COOH, trans-3-(N-(N-Benzyloxycarbonyleucyl)-N^1-ethylhydrazinocarbonyl)oxirane-2-carboxylic Acid]	1.47	0.57			
CCOC(=O)C1OC1C(=O)N(CCc1ccccc1)NC(C)=O (stereo not drawn) [Ac-AHph-trans-EP-COOEt, trans-3-(N^2-(N-Acetyl)-N^1-phenylethylhydrazinocarbonyl)oxirane-2-carboxylic Acid Ethyl Ester]	26.88	1.29			40.62
